Test [1] concerns Mycobacterium tuberculosis multidrug-resistant (MDR) strain. Description: microbe, parasite or virus in culture. Conditions: 192 h, read-out: Anti-tubercular activity against Mycobacterium tuberculosis (MIC), MDR. The format is cell-based.
Test [2] has as its system Mycobacterium tuberculosis extensively drug-resistant (XDR) strain. Description: microbe, parasite or virus in culture. The format is cell-based. The conditions noted are these: 192 h, read-out: Anti-tubercular activity against Mycobacterium tuberculosis (MIC), XDR.

1 compound from patent US12202801B1 (priority 2023, dated 2025) can be followed below.

Regarding `N#Cc1ccc(C(=O)C[n+]2ccc(C#N)cc2)cc1.[Br-]` [Compound 3f, 4-Cyano-1-(2-(4-cyanophenyl)-2-oxoethyl)pyridin-1-ium bromide], the MIC in test [1] stood at 4 µg/mL; in test [2], 32 µg/mL.
